Columns and labels:
[1] = Chemical stability assay in PBS; assay type: physicochemical
Protocol: The quantitative HPLC analyses were acquired using Waters Alliance e2695 separations module (Waters, Milford, CT, USA) containing 2998 photodiode array (PDA), a detector (Waters, Milford, CT, USA), and the SpeedROD RP-18e 50–4.6 mm column (Merck, KGaA, Darmstadt, Germany). The temperature of the column was preserved at 30 °C. […] Each sample was injected at a volume of 10 μL in triplicate. […] The stock solutions were mixed with methanol and diluted, resulting in various solutions with concentrations ranging from 1.0 to 0.125 μg/mL. These solutions were then utilized to generate calibration curves by plotting AUC versus concentration in μg/mL. The examined molecules (2 mg) were dissolved in 1 mL of Dulbecco’s phosphate buffered saline (DPBS). The mixture was then continuously agitated at 22 °C for 24 h using a thermoshaker. Following this period, the mixtures were filtered through a cellulose acetate syringe filter (with a pore size of 0.22 μm), moved to a chromatographic vial, and analyzed. To quantify the investigated compounds, the areas beneath their respective peaks on DAD chromatograms were employed. Solubility was calculated using the calibration curves. Chemical stability assay: Stock solution of 16 in DMSO (10 mg/mL) was used. Next, 25 μL of stock solution was mixed with 975 μL of PBS (Dulbecco’s phosphate-buffered saline, Sigma, Poland). […] HPLC analyses were used to quantify the percentage of molecules that remained at each time point relative to the 0 min time point. Brain tissue stability assay: […] Then, 50 μL of the stock solution was combined with 50 μL of ice-cold 50 mM Tris-HCl buffer (pH 7.4) and 150 μL of brain homogenate (suspended in 20 volumes of 50 mM Tris-HCl buffer, ice cold, pH 7.4). The mix was then incubated at 37 °C and quenched at several time points. To terminate the reaction mixture, 250 μL of the appropriate reaction mixture was mixed with 1000 μL of MeCM in the Eppendorf Tube. Following 10 min of shaking (1500 rpm), samples were centrifuged (10 000 rpm, 10 min, 4 °C) and the acquired supernatant was collected. Before conducting HPLC analysis, the supernatant was filtered via a cellulose acetate syringe filter with a pore size of 0.45 μm and then transferred to a chromatographic vial. HPLC analysis was used to determine the percentage of the tested molecule remaining at each time point, relative to the 0 min time point. Plasma stability assay was performed as described previously.[45] Frozen rat plasma (Wistar) was thawed. […] The samples were collected at relative time points. The reaction was terminated by adding 1200 of μL acetonitrile/methanol mixture (50:50, v/v). The samples were centrifuge at 25 000 rpm for 10 min. HPLC analysis was used to determine the percentage of the tested molecule remaining at each time point relative to the 0 min time point. All the experiments were performed in duplicate.

[2] = Hepatotoxicity assay, HepG2 cell viability (PrestoBlue, ToxiLight); assay type: cell-based, human; conditions: human, HepG2 cells, 24 h, read-out: viability of cells, MEAN (percentage of control, live cells)
Protocol: (§1) Hepatotoxiticy assay was conducted according to our previously described procedures.[42]Cell culture and treatment: The human hepatocellular carcinoma (HepG2) cell line was acquired from ATCC, Manassas, USA (HB-8065), and maintained according to the manufacturer’s ATCC protocol. Cell culture conditions included a medium consisting of Dulbecco’s modified Eagle’s medium (DMEM, Merck), 10% fetal bovine serum, […], 100 IU/mL penicillin (acquired from ThermoFisher), humidified atmosphere containing 5% of carbon dioxide, temperature of 37 °C. The stock solution of the tested compound was prepared in DMSO (10 mM) and next diluted with buffered phosphate saline (PBS, Merck). Cell membrane damage was examined with the use of a ToxiLight bioassay (Lonza), rendering the manufacturer’s protocol described previously.[42] A culture medium containing 10% Triton X-100 (Merck) was used as the positive control of cell damage, while the negative control contained solely vehicle. After incubating for 5 min, the luminescence was examined with the plate reader POLARstar Omega (BMG Labtech). The results were expressed as a percentage of the positive control, which was defined as the percentage of dead cells relative to the control sample. Cell viability assay: The viability of cells was examined with the use of the PrestoBlue reagent (ThermoFisher) and protocol provided by the manufacturer. After incubating for 24 h with the examined compounds, one-tenth of the remaining medium volume was mixed with the reagent (PrestoBlue) in a microplate well. Following incubation at 37 °C during 15 min, the fluorescence (EX 530; EM 580 nm) was measured using the plate reader POLARstar Omega, (BMG Labtech). The viability values obtained are presented as a percentage of live cells relative to the DMSO (control sample). The GraphPad program was used to perform the statistical analysis. The mean values with their corresponding coefficient of variation (CV) were reported for all data. The differences between the groups were analyzed using one-way analysis of variance (ANOVA) followed by Dunnett’s multiple comparison tests as post hoc analysis. The statistical significance: p < 0.05.

[3] = tested on: HepG2 cells; experiment: as above; assay type: cell-based, human; conditions: concentrations up to 50 μM; viability assay and ToxiLight
Protocol: as §1

[4] = Metabolic stability in rat liver microsomes; assay type: in vitro ADME; conditions: assayed at 10^–7 M
Protocol: The assay was performed by Eurofins Discovery, a contract research organization, according to standard methodology, described previously.[46]

[5] = Thermodynamic solubility in PBS; assay type: physicochemical; conditions: Dulbecco’s phosphate buffered saline, 22 °C, aqueous buffer, thermodynamic from solid, PBS pH 7.4, rt
Protocol: The temperature of the column was preserved at 30 °C. The experiment was conducted under the following conditions: a flow rate of 5 mL/min, eluent A (water/0.1% HCOOH), eluent B (MeCN/0.1% HCOOH), a gradient of starting from 0% of B to 100% of B over a duration of 3 min. Each sample was injected at a volume of 10 μL in triplicate. […] These solutions were then utilized to generate calibration curves by plotting AUC versus concentration in μg/mL. The examined molecules (2 mg) were dissolved in 1 mL of Dulbecco’s phosphate buffered saline (DPBS). The mixture was then continuously agitated at 22 °C for 24 h using a thermoshaker. Following this period, the mixtures were filtered through a cellulose acetate syringe filter (with a pore size of 0.22 μm), moved to a chromatographic vial, and analyzed. To quantify the investigated compounds, the areas beneath their respective peaks on DAD chromatograms were employed. Solubility was calculated using the calibration curves. […] All the experiments were performed in duplicate.

Cc1c(OCc2ccccc2)cccc1N1CCN(CCOC(=O)CCCN)CC1.Cl.Cl [Compound 16, 1-(2-((4-Ammoniobutanoyl)oxy)ethyl)-4-(3-(benzyloxy)-2-methylphenyl)piperazin-1-ium Dichloride]
% compound remaining, rt ([1]; 0 min): 100 ± 0.2%
% compound remaining, rt ([1]; 15 min): 98.43 ± 1.8%
% compound remaining, rt ([1]; 30 min): 94.23 ± 1.8%
% compound remaining, rt ([1]; 60 min): 92.46 ± 2.2%
% compound remaining, rt ([1]; 120 min): 86.63 ± 2.3%
% compound remaining, rt ([1]; 240 min): 62.21 ± 1.7%
viability at 24 h, 1 µM ([2]; HepG2, 1 µM): 102%
viability at 24 h, 10 µM ([2]; HepG2, 10 µM): 104%
viability at 24 h, 50 µM ([2]; HepG2, 50 µM): 102%
viability at 24 h, 100 µM ([2]; HepG2, 100 µM): 14%
reduction of HepG2 viability [3]: not significant reduction of viability
rat liver microsomes Clint [4]: <115.5 (μL/min)/mg
rat liver microsomes t0,5 [4]: >60 min
solubility at 24 h [5]: > 2000 µg/mL
